Experiments:
Test in all cases: radiometric filter-binding kinase assay
[1] = biological target: GCK (human) (UniProt Q12851)
[2] = biological target: MARK3 (human) (UniProt P27448)
[3] = biological target: DYRK2 (human) (UniProt Q92630)
[4] = biological target: MAPKAPK5 (human) (UniProt Q8IW41)
[5] = biological target: EPHB2 (human) (UniProt P29323)
[6] = biological target: EPHB4 (human) (UniProt P54760)
[7] = biological target: YES1 (human) (UniProt P07947)
[8] = biological target: MAPK10 (human) (UniProt P53779)
[9] = biological target: MAPK8 (human) (UniProt P45983)
Chain of MAPK8 (human) (P45983 whole entry, looked up): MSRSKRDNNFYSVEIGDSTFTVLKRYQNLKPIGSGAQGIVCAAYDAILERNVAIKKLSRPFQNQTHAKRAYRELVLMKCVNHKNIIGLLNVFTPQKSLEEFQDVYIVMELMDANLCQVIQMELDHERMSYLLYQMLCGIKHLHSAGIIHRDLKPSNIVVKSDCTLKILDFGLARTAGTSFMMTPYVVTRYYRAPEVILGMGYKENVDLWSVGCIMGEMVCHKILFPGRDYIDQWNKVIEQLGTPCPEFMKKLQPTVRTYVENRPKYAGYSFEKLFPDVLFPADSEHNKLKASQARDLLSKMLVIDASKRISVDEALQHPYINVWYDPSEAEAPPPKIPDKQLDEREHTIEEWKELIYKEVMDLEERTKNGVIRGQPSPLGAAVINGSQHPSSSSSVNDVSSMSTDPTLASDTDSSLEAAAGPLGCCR

[10] = biological target: INSR (human) (UniProt P06213)
[11] = biological target: TAOK1 (human) (UniProt Q7L7X3)
Chain of TAOK1 (human) (Q7L7X3 whole entry, looked up): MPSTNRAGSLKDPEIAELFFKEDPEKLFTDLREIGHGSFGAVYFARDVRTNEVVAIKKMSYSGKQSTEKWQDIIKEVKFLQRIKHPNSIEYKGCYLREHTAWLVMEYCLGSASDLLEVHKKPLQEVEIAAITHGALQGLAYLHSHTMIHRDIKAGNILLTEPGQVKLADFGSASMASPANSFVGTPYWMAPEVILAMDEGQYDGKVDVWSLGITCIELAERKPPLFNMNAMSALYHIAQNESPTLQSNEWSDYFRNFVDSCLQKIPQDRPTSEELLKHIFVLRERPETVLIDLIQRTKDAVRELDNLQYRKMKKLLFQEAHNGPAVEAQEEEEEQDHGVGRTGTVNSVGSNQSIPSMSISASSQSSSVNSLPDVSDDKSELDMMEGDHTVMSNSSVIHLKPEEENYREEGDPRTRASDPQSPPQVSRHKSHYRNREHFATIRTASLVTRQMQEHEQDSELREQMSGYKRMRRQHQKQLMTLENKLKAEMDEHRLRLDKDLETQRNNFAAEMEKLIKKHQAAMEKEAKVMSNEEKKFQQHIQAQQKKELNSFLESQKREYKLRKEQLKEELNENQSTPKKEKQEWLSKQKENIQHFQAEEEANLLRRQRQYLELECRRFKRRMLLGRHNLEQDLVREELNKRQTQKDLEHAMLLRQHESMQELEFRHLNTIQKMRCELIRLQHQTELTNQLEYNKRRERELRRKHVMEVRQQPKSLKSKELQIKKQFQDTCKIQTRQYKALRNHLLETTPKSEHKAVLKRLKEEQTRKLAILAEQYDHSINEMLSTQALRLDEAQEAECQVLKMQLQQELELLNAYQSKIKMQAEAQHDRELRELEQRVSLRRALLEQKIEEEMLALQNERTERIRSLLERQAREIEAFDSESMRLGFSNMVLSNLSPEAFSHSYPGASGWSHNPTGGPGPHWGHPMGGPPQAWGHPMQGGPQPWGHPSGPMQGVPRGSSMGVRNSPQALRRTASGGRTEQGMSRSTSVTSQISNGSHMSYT

[12] = biological target: DYRK3 (human) (UniProt O43781)
[13] = biological target: SYK (human) (UniProt P43405)
[14] = biological target: PRKCA (human) (UniProt P17252)
[15] = biological target: MAP3K11 (human) (UniProt Q16584)
[16] = biological target: BTK (human) (UniProt Q06187)
[17] = biological target: TBK1 (human) (UniProt Q9UHD2)
Chain of TBK1 (human) (Q9UHD2 whole entry, looked up): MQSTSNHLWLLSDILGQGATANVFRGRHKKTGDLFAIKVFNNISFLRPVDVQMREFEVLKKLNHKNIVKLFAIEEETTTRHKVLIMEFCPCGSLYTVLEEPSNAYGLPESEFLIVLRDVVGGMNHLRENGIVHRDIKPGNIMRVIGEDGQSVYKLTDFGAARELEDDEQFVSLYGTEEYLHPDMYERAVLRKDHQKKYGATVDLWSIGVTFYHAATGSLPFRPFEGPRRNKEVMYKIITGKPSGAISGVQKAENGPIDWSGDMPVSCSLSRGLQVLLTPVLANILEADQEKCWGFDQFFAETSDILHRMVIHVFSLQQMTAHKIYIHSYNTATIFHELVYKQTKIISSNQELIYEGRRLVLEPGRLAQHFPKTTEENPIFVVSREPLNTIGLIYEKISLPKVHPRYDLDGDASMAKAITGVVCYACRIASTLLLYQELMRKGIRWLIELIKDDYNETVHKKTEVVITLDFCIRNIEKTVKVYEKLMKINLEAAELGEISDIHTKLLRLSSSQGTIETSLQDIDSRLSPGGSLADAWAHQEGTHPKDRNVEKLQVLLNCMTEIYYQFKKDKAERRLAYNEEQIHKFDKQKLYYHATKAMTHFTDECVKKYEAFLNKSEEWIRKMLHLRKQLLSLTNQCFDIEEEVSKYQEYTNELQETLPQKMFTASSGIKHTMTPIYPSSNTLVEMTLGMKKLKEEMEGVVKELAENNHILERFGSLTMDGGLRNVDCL

[18] = biological target: EPHB1 (human) (UniProt P54762)
[19] = biological target: BRSK2 (human) (UniProt Q8IWQ3)

Chain of MARK3 (human) (P27448 whole entry, looked up): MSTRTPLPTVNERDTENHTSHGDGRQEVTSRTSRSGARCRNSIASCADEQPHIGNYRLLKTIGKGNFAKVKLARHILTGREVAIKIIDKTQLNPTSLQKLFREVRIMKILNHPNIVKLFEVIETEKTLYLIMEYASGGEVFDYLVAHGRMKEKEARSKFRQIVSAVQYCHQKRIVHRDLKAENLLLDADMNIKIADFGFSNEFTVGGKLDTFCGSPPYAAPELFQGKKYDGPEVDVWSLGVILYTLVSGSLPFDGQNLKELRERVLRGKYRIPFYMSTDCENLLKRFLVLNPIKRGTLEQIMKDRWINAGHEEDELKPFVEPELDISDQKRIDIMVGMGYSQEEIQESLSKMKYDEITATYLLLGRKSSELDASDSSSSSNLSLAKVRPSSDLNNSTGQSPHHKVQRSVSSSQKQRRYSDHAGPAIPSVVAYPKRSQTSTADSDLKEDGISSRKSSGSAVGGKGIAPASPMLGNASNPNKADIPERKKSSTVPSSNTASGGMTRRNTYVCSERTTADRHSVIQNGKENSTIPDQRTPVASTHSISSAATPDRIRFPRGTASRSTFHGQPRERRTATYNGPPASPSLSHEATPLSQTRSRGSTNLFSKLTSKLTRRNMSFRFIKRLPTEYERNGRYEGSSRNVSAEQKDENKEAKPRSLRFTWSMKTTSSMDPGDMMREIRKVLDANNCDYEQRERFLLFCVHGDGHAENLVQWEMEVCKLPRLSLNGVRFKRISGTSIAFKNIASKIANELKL
Chain of EPHB2 (human) (P29323 whole entry, looked up): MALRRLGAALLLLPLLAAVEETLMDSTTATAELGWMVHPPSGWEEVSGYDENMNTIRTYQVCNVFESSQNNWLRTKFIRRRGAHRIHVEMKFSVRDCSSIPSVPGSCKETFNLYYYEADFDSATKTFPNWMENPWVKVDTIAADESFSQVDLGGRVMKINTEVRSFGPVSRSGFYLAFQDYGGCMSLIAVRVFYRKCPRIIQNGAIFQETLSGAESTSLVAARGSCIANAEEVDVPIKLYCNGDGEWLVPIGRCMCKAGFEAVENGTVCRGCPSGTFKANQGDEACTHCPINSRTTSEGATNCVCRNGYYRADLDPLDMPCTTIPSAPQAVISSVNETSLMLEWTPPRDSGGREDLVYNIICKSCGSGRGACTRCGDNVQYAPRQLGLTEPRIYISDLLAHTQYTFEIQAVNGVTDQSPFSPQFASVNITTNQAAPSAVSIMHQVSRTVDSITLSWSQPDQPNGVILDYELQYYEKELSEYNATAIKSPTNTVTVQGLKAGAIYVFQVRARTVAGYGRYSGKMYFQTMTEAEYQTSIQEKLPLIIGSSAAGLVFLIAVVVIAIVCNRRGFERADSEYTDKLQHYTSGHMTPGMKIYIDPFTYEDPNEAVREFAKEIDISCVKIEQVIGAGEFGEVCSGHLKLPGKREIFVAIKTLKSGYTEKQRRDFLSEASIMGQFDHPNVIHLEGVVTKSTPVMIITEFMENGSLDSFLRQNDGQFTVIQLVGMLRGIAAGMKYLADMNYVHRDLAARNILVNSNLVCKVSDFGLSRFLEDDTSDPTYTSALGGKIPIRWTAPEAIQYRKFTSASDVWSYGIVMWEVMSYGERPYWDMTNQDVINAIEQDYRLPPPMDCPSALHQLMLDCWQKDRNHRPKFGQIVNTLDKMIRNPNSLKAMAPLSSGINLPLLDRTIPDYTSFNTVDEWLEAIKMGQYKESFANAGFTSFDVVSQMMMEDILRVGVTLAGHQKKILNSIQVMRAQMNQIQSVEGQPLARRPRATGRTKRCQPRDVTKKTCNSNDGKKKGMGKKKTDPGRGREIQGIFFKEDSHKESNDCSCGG
Chain of GCK (human) (Q12851 whole entry, looked up): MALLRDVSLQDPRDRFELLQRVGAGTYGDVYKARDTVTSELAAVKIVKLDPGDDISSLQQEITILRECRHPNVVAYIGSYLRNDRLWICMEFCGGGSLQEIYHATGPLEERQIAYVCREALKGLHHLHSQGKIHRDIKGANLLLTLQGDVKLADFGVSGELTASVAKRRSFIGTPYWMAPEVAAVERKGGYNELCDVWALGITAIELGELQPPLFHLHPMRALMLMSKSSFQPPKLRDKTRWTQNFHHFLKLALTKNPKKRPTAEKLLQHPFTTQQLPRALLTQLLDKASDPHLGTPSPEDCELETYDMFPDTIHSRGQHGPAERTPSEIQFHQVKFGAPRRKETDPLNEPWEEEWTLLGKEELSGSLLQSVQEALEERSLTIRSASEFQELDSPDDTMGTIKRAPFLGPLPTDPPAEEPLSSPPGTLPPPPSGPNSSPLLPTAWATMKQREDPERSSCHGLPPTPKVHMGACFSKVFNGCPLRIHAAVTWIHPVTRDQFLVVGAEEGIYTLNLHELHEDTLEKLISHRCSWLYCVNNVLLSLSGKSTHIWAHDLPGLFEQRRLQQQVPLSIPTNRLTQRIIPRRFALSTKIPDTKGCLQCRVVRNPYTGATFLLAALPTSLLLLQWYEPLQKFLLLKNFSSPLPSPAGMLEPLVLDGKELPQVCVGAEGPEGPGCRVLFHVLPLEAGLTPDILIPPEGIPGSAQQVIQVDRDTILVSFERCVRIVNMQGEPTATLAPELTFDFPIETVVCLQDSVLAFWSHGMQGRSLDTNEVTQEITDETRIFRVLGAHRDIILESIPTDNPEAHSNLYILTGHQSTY

Q: What does the source list for `COc1cc(O)c2c(c1)[C@H]1OC1C[C@H](O)[C@H](O)C(=O)/C=C\C[C@H](C)OC2=O` (stereo partly specified)?
A: residual activity ([1]; compound 0.01 µM): 114%; residual activity ([1]; compound 0.1 µM): 105%; residual activity ([1]; compound 1.0 µM): 97%; residual activity ([2]; compound 0.01 µM): 98%; residual activity ([2]; compound 0.1 µM): 102%; residual activity ([2]; compound 1.0 µM): 95%; residual activity ([3]; compound 0.01 µM): 109%; residual activity ([3]; compound 0.1 µM): 105%; residual activity ([4]; compound 0.01 µM): 74%; residual activity ([4]; compound 0.1 µM): 72%; residual activity ([4]; compound 1.0 µM): 32%; residual activity ([5]; compound 0.01 µM): 124%; residual activity ([5]; compound 0.1 µM): 118%; residual activity ([5]; compound 1.0 µM): 115%; residual activity ([6]; compound 0.01 µM): 109%; residual activity ([6]; compound 0.1 µM): 116%; residual activity ([7]; compound 0.01 µM): 87%; residual activity ([7]; compound 0.1 µM): 85%; residual activity ([8]; compound 0.01 µM): 89%; residual activity ([8]; compound 0.1 µM): 101%; residual activity ([8]; compound 1.0 µM): 107%; residual activity ([9]; compound 0.01 µM): 104%; residual activity ([9]; compound 0.1 µM): 98%; residual activity ([9]; compound 1.0 µM): 80%; residual activity ([10]; compound 0.01 µM): 112%; residual activity ([10]; compound 0.1 µM): 116%; residual activity ([10]; compound 1.0 µM): 97%; residual activity ([11]; compound 0.01 µM): 106%; residual activity ([11]; compound 0.1 µM): 101%; residual activity ([11]; compound 1.0 µM): 100%; residual activity ([12]; compound 0.01 µM): 113%; residual activity ([12]; compound 0.1 µM): 109%; residual activity ([12]; compound 1.0 µM): 124%; residual activity ([13]; compound 0.1 µM): 108%; residual activity ([13]; compound 1.0 µM): 85%; residual activity ([14]; compound 0.01 µM): 88%; residual activity ([14]; compound 0.1 µM): 88%; residual activity ([14]; compound 1.0 µM): 92%; residual activity ([15]; compound 0.1 µM): 102%; residual activity ([15]; compound 1.0 µM): 90%; residual activity ([16]; compound 0.01 µM): 105%; residual activity ([16]; compound 0.1 µM): 115%; residual activity ([16]; compound 1.0 µM): 109%; residual activity ([17]; compound 0.01 µM): 110%; residual activity ([17]; compound 0.1 µM): 112%; residual activity ([17]; compound 1.0 µM): 93%; residual activity ([18]; compound 0.01 µM): 97%; residual activity ([18]; compound 0.1 µM): 110%; residual activity ([18]; compound 1.0 µM): 84%; residual activity ([19]; compound 0.01 µM): 114%; residual activity ([19]; compound 0.1 µM): 93%

From the kinase profiling compilation of Christmann-Franck et al. (2016)
